Measurements reported in patent publication US6416780B1 (Galen (Chemicals) Limited, priority 1997, dated 2002).
Like-named read-outs stand apart in the source and are kept apart here.

How the values were obtained:
[1] = Example 2 rings; 1.0% BKC versus 0.9% saline
[2] = for sink conditions in 0.9% saline: rings of Examples 1 and 2, 250 ml, 37° C.; for In vitro release into 0.9% saline (as total testosterone): core loading 10% w/w testosterone
Description: The rings were tested in vitro at a constant temperature of 37° C. for their release characteristics in a sufficient volume (250 ml) of each of the following media: 0.9% (w/v) saline and 1.0% (w/v) aqueous benzalkonium chloride (BKC).
Thus, each ring was suspended by a thread in an individual enclosed flask containing the dissolution medium, maintained at a constant temperature of 37° C. The contents of the flask were gently agitated in order to prevent the occurrence of a hydrostatic layer on the surface of the ring. After 24 hours (±30 minutes), the ring was removed and suspended in a flask of fresh dissolution medium of identical volume.

[3] = In vitro release from Example 5 testosterone-17-propionate ring into 0.9% saline over 26 days; format: physicochemical; settings: for In Vitro Release of Testosterone-17-propionate, Release Rate: Example 5 ring core length 90 mm
[4] = human female, cited from earlier work
[5] = In vitro release from Example 3 rings into 0.9% saline over 30 days; format: physicochemical; settings: 30 day monitoring period
[6] = In vitro release from Example 6 pessary bullets into 0.9% saline; settings: following an initial burst phase

## CC(=O)O[C@H]1CC[C@H]2[C@@H]3CCC4=CC(=O)CC[C@]4(C)[C@H]3CC[C@]12C [testosterone-17-acetate]
[1]
  in vitro release rates into BKC compared with saline: considerably higher than those into saline
[2]
  sink conditions in 0.9% saline: ‘non-sink conditions’ exist in saline

## CCC(=O)O[C@H]1CC[C@H]2[C@@H]3CCC4=CC(=O)CC[C@]4(C)[C@H]3CC[C@]12C [testosterone-17-propionate]
[3]; 0.9% saline, day 2
  In Vitro Release of Testosterone-17-propionate, Release Rate: 171 µg/day
[3]; 0.9% saline, day 3
  In Vitro Release of Testosterone-17-propionate, Release Rate: 328 µg/day
[3]; 0.9% saline, day 4
  In Vitro Release of Testosterone-17-propionate, Release Rate: 337 µg/day
[3]; 0.9% saline, day 5
  In Vitro Release of Testosterone-17-propionate, Release Rate: 465 µg/day
[3]; 0.9% saline, day 7
  In Vitro Release of Testosterone-17-propionate, Release Rate: 457 µg/day
[3]; 0.9% saline, day 13
  In Vitro Release of Testosterone-17-propionate, Release Rate: 527 µg/day
[3]; 0.9% saline, day 14
  In Vitro Release of Testosterone-17-propionate, Release Rate: 587 µg/day
[3]; 0.9% saline, day 19
  In Vitro Release of Testosterone-17-propionate, Release Rate: 585 µg/day
[3]; 0.9% saline, day 20
  In Vitro Release of Testosterone-17-propionate, Release Rate: 663 µg/day
[3]; 0.9% saline, day 26
  In Vitro Release of Testosterone-17-propionate, Release Rate: 637 µg/day
[3]; Example 5 ring, freshly made, 0.9% saline
  lag phase of in vitro release: 13 days
[3]; Example 5 ring, 0.9% saline, 13 day monitoring after the lag phase
  in vitro release pattern: substantially zero order pattern
[3]; intravaginal rings, high dose applications
  amounts released compared with testosterone: amounts released are greater

## C[C@]12CC[C@H]3[C@@H](CCC4=CC(=O)CC[C@@]43C)[C@@H]1CC[C@@H]2O [testosterone]
[4]; matrix (non-rate controlled) transdermal system, per day
  testosterone delivered per day: about 1000 μg
[4]; matrix transdermal system delivering about 1000 μg per day
  mean circulating plasma testosterone levels: 4 to 6 nM
[5]
  in vitro release pattern: substantially zero order pattern
[6]
  in vitro release pattern: substantially zero order release
[2]; ring core length 30 mm, day 2
  In vitro release into 0.9% saline (as total testosterone): 270 µg/day
[2]; ring core length 30 mm, day 3
  In vitro release into 0.9% saline (as total testosterone): 232 µg/day
[2]; ring core length 30 mm, day 5
  In vitro release into 0.9% saline (as total testosterone): 237 µg/day
[2]; ring core length 30 mm, day 8
  In vitro release into 0.9% saline (as total testosterone): 228 µg/day
[2]; ring core length 30 mm, day 9
  In vitro release into 0.9% saline (as total testosterone): 229 µg/day
[2]; ring core length 30 mm, day 10
  In vitro release into 0.9% saline (as total testosterone): 226 µg/day
[2]; ring core length 30 mm, day 13
  In vitro release into 0.9% saline (as total testosterone): 238 µg/day
[2]; ring core length 30 mm, day 15
  In vitro release into 0.9% saline (as total testosterone): 227 µg/day
[2]; ring core length 30 mm, day 16
  In vitro release into 0.9% saline (as total testosterone): 216 µg/day
[2]; ring core length 30 mm, day 17
  In vitro release into 0.9% saline (as total testosterone): 224 µg/day
[2]; ring core length 60 mm, day 2
  In vitro release into 0.9% saline (as total testosterone): 471 µg/day
[2]; ring core length 60 mm, day 3
  In vitro release into 0.9% saline (as total testosterone): 401 µg/day
[2]; ring core length 60 mm, day 5
  In vitro release into 0.9% saline (as total testosterone): 419 µg/day
[2]; ring core length 60 mm, day 8
  In vitro release into 0.9% saline (as total testosterone): 400 µg/day
[2]; ring core length 60 mm, day 9
  In vitro release into 0.9% saline (as total testosterone): 407 µg/day
[2]; ring core length 60 mm, day 10
  In vitro release into 0.9% saline (as total testosterone): 406 µg/day
[2]; ring core length 60 mm, day 13
  In vitro release into 0.9% saline (as total testosterone): 430 µg/day
[2]; ring core length 60 mm, day 15
  In vitro release into 0.9% saline (as total testosterone): 408 µg/day
[2]; ring core length 60 mm, day 16
  In vitro release into 0.9% saline (as total testosterone): 392 µg/day
[2]; ring core length 60 mm, day 17
  In vitro release into 0.9% saline (as total testosterone): 388 µg/day
[2]; ring core length 90 mm, day 2
  In vitro release into 0.9% saline (as total testosterone): 696 µg/day
[2]; ring core length 90 mm, day 3
  In vitro release into 0.9% saline (as total testosterone): 572 µg/day
[2]; ring core length 90 mm, day 5
  In vitro release into 0.9% saline (as total testosterone): 588 µg/day
[2]; ring core length 90 mm, day 8
  In vitro release into 0.9% saline (as total testosterone): 592 µg/day
[2]; ring core length 90 mm, day 10
  In vitro release into 0.9% saline (as total testosterone): 581 µg/day
[2]; ring core length 90 mm, day 13
  In vitro release into 0.9% saline (as total testosterone): 623 µg/day
[2]; ring core length 90 mm, day 15
  In vitro release into 0.9% saline (as total testosterone): 595 µg/day
[2]; ring core length 90 mm, day 16
  In vitro release into 0.9% saline (as total testosterone): 584 µg/day
[2]; ring core length 90 mm, day 17
  In vitro release into 0.9% saline (as total testosterone): 612 µg/day
[2]
  sink conditions in 0.9% saline: ‘Sink conditions’ were evident
